Test results published in PMC7144182, “Synthesis, biological evaluation and molecular modelling of 2,4-disubstituted-5-(6-alkylpyridin-2-yl)-1H-imidazoles as ALK5 inhibitors” (Journal of Enzyme Inhibition and Medicinal Chemistry, 2020).
pIC50: −log10 of the molar value. Marks after values point to notes of the source that are not given here.

What was measured:
[1] = target: T1, purified human ALK5 kinase domain (Homo sapiens, UniProt P36897); experiment: ALK5 kinase assay (33PanQinase, casein as substrate); type: biochemical; conditions: for pIC50: casein substrate, 1 μM ATP, singlicate (11e: mean of triplicates); for fold less potent than the corresponding 6-methylpyridyl analogue: vs 11a, 11e, 16a, 16e respectively
T1 construct: using the purified human ALK5 kinase domain produced in Sf9 insect cells; host or cells: Sf9 insect cells
T1 sequence (P36897 205-495 limits assumed): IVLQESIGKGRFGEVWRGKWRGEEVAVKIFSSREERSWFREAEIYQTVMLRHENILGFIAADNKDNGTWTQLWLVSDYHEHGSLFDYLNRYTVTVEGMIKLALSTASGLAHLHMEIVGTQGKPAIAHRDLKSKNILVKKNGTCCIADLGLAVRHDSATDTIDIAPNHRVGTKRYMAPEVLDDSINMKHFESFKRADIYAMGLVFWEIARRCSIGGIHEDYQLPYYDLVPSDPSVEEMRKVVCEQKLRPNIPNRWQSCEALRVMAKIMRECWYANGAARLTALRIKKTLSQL
Protocol: To evaluate whether these potential inhibitors 7a–c, 11a–h, and 16a–h could inhibit ALK5, a kinase assay was performed using the purified human ALK5 kinase domain produced in Sf9 insect cells and casein as a substrate (Table 1).

[2] = tested on: Caco-2 cells; experiment: Caco-2 cell permeability assay; type: in vitro ADME; conditions: 100 µM, AP to BL, 2 h; mean ± SD of quadruplicates
Protocol: Caco-2 cells were seeded in Transwell® polycarbonate filter at a density of 8 × 10^4 cells/filter and cultured for 21 days. Culture medium was removed from both apical (AP) and basolateral (BL) chambers of transwell, and the wells were rinsed three times with PBS. AP buffer (HBSS, pH 6.5) containing 10 mM MES and BL buffer (HBSS, pH 7.4) containing 10 mM HEPES were loaded in AP (500 µL) and BL (1500 µL) chambers, respectively, followed by incubation for 30 min at 37 °C. Then, test compound (100 µM) was added to the AP side and incubated for 2 h at 37 °C. After the incubation, BL buffer was collected and analysed using an UV spectrophotometer at a maximum wavelength (wavelength 225–357 nm).
To estimate oral absorption of target compounds, their permeability in a Caco-2 monolayer was evaluated at a concentration of 100 µM (Table 1).

[3] = tested on: TGF-β1-induced luciferase reporter activity, HaCaT (3TP-luc) stable cells; experiment: Cell-based p3TP-luciferase reporter assay; conditions: for % inhibition in luciferase reporter assay: 0.1 µM inhibitor; for p3TP-luciferase activity (% control): 0.1 μM inhibitor, TGF-β1 2 ng/mL, 24 h, mean ± SD of three independent experiments
Protocol: To establish HaCaT (3TP-luc) stable cells, cells were seeded on six-well plates. Cells were allowed to adhere overnight and then transfected with the p3TP-luc (neo) expression plasmid using PEI reagent (Sigma Aldrich). Transfected cells were cultured for four weeks in the presence of G418 (500 µg/mL). Several single clones were isolated and measured luciferase activity. The clone showing response to TGF-β1 treatment was used for reporter assay. HaCaT (3TP-luc) stable cells were seeded at 2.5 × 10^4 cells/well in 96-well plate and were allowed to adhere overnight. Cells were concomitantly treated with TGF-β1 (2 ng/mL) and indicated concentrations of ALK5 inhibitors in 0.2% FBS medium and incubated for 24 h at 37 °C in 5% CO2. Cell lysates were prepared using Luciferase Assay System (Promega) according to the manufacturer’s instruction, and luminescence was measured by a luminometer, Micro Lumat Plus (Berthold, Germany).

| SMILES | pIC50 [1] | Caco-2 permeability (%) [2] | fold higher ALK5 inhibitory activity than 7a ([1]; kinase assay) [fold] | fold higher ALK5 inhibitory activity than 7c ([1]; kinase assay) [fold] | fold more potent than the benzo[1,3]dioxol-5-yl analogue ([1]; 11a vs 7a, 16a vs 7b, kinase assay) [fold] | fold less potent than the corresponding 6-methylpyridyl analogue ([1]; kinase assay) | % inhibition in luciferase reporter assay [3] [% inhibition] | p3TP-luciferase activity (% control) [3] [% control] |
| --- | --- | --- | --- | --- | --- | --- | --- | --- |
| Cc1cccc(-c2[nH]c(Cc3ccc(C(N)=O)cc3)nc2-c2ccc3c(c2)OCO3)n1 [Compound 7a, 4-((4-(Benzo[d][1,3]dioxol-5-yl)-5-(6-methylpyridin-2-yl)-1H-imidazol-2-yl)methyl)benzamide] | 6.65 | 35 ± 0.7^f % | – | – | – | – | 72 | 28 ± 7.1 |
| Cc1cccc(-c2[nH]c(CCc3ccc(C(N)=O)cc3)nc2-c2ccc3c(c2)OCO3)n1 [Compound 7b, 4-(2-(4-(Benzo[d][1,3]dioxol-5-yl)-5-(6-methylpyridin-2-yl)-1H-imidazol-2-yl)ethyl)benzamide] | 7.03 | 23 ± 3.0% | 2.4 | 3.6 | – | – | 74 | 26 ± 7.9 |
| Cc1cccc(-c2[nH]c(CCCc3ccc(C(N)=O)cc3)nc2-c2ccc3c(c2)OCO3)n1 [Compound 7c, 4-(3-(4-(Benzo[d][1,3]dioxol-5-yl)-5-(6-methylpyridin-2-yl)-1H-imidazol-2-yl)propyl)benzamide] | 6.47 | 32 ± 1.1% | – | – | – | – | 40 | 60 ± 9.5 |

Second part, led by results:

| pIC50 [1] | Caco-2 permeability (%) [2] | fold higher ALK5 inhibitory activity than 7a ([1]; kinase assay) [fold] | fold higher ALK5 inhibitory activity than 7c ([1]; kinase assay) [fold] | fold more potent than the benzo[1,3]dioxol-5-yl analogue ([1]; 11a vs 7a, 16a vs 7b, kinase assay) [fold] | fold less potent than the corresponding 6-methylpyridyl analogue ([1]; kinase assay) | SMILES | % inhibition in luciferase reporter assay [3] [% inhibition] | p3TP-luciferase activity (% control) [3] [% control] |
| --- | --- | --- | --- | --- | --- | --- | --- | --- |
| 7.06 | 25 ± 1.3% | – | – | 2.5 | – | Cc1cccc(-c2[nH]c(Cc3ccc(C(N)=O)cc3)nc2-c2ccc3nccnc3c2)n1 [Compound 11a, 4-((5-(6-Methylpyridin-2-yl)-4-(quinoxalin-6-yl)-1H-imidazol-2-yl)methyl)benzamide] | 84 | 16 ± 4.5 |
| 6.95 | 26 ± 3.5% | – | – | – | 1.3 fold | CCc1cccc(-c2[nH]c(Cc3ccc(C(N)=O)cc3)nc2-c2ccc3nccnc3c2)n1 [Compound 11b, 4-((5-(6-Ethylpyridin-2-yl)-4-(quinoxalin-6-yl)-1H-imidazol-2-yl)methyl)benzamide] | – | 33 ± 21.3 |
| 5.66 | 30 ± 9.0% | – | – | – | 13–35 fold | CC(C)c1cccc(-c2[nH]c(Cc3ccc(C(N)=O)cc3)nc2-c2ccc3nccnc3c2)n1 [Compound 11c, 4-((5-(6-Isopropylpyridin-2-yl)-4-(quinoxalin-6-yl)-1H-imidazol-2-yl)methyl)benzamide] | – | 39 ± 11.4 |
| 5.57 | 41 ± 5.3% | – | – | – | – | CCCCc1cccc(-c2[nH]c(Cc3ccc(C(N)=O)cc3)nc2-c2ccc3nccnc3c2)n1 [Compound 11d, 4-((5-(6-n-Butylpyridin-2-yl)-4-(quinoxalin-6-yl)-1H-imidazol-2-yl)methyl)benzamide] | – | 85 ± 32.5 |
| 7.12 | 38 ± 13.8% | – | – | – | 2.1 fold | CCc1cccc(-c2[nH]c(Cc3cccc(C(N)=O)c3)nc2-c2ccc3nccnc3c2)n1 [Compound 11f, 3-((5-(6-Ethylpyridin-2-yl)-4-(quinoxalin-6-yl)-1H-imidazol-2-yl)methyl)benzamide] | – | 17 ± 3.7 |
| 5.98 | – | – | – | – | – | CCCCc1cccc(-c2[nH]c(Cc3cccc(C(N)=O)c3)nc2-c2ccc3nccnc3c2)n1 [Compound 11h, 3-((5-(6-n-Butylpyridin-2-yl)-4-(quinoxalin-6-yl)-1H-imidazol-2-yl)methyl)benzamide] | – | 83 ± 21.1 |
